We go through 20 compounds from patent publication US9796711B2, “Substituted pyrazolo[3,4-b]pyridin-6-carboxylic acids and method of use” (AbbVie S.àr.l., priority 2015, dated 2017).

Assay [1] deals with T1, ΔF508-CFTR (Homo sapiens, UniProt P13569, DEL508-508).
T1 construct: host or cells: CFBE41o-, doxycycline-inducible
Briefly: CFTR cell surface levels using HRP-tagged ΔF508-CFTR expressing CFBE cells, intrinsic corrector capacity. The format is cell-based. The following applies: for EC50: read-out: EC50. In outline:
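Here the cells express ΔF508-CFTR with horseradish peroxidase inserted in extracellular loop 4, so only rescued channel at the surface gives luminescent signal. Compounds act on their own, 20 h at the reduced temperature of 33 °C; values are percent activity relative to DMSO and a 3 μM corrector.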

The target of assay [2] is T1, ΔF508-CFTR. Briefly: CFTR cell surface levels using HRP-tagged ΔF508-CFTR expressing CFBE cells, in the presence of a co-corrector. The class given is cell-based. The following applies: HRP-tagged ΔF508-CFTR expressing CFBE cells, in the presence of 3 μM co-corrector; for EC50: read-out: EC50. The gist of the method:
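Cells were seeded with 0.5 μg/mL doxycycline and held 68 h at 37 °C. Test compounds plus 3 μM co-corrector (final 0.1% DMSO) were then added for 20 h at 33 °C. Washed cells received HRP substrate, and luminescence was normalized between DMSO and 3 μM co-corrector controls.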

Where [3] appears, read: HRP-tagged ΔF508-CFTR CFBE41o- cells, compounds alone (intrinsic corrector capacity), 20 hours at 33° C., positive control 3 μM corrector.
Setting [4] is: HRP-tagged ΔF508-CFTR CFBE41o- cells, compounds alone (intrinsic corrector capacity), 20 hours at 33° C.
Where [5] appears, read: HRP-tagged ΔF508-CFTR expressing CFBE cells, intrinsic corrector capacity (no co-corrector), 33° C., 20 hours.
Setting [6] is: HRP-tagged ΔF508-CFTR CFBE cells, compound alone (intrinsic corrector capacity), 20 hours at 33° C.

T1 sequence (P13569 with tags, fused parts or gaps DEL508-508): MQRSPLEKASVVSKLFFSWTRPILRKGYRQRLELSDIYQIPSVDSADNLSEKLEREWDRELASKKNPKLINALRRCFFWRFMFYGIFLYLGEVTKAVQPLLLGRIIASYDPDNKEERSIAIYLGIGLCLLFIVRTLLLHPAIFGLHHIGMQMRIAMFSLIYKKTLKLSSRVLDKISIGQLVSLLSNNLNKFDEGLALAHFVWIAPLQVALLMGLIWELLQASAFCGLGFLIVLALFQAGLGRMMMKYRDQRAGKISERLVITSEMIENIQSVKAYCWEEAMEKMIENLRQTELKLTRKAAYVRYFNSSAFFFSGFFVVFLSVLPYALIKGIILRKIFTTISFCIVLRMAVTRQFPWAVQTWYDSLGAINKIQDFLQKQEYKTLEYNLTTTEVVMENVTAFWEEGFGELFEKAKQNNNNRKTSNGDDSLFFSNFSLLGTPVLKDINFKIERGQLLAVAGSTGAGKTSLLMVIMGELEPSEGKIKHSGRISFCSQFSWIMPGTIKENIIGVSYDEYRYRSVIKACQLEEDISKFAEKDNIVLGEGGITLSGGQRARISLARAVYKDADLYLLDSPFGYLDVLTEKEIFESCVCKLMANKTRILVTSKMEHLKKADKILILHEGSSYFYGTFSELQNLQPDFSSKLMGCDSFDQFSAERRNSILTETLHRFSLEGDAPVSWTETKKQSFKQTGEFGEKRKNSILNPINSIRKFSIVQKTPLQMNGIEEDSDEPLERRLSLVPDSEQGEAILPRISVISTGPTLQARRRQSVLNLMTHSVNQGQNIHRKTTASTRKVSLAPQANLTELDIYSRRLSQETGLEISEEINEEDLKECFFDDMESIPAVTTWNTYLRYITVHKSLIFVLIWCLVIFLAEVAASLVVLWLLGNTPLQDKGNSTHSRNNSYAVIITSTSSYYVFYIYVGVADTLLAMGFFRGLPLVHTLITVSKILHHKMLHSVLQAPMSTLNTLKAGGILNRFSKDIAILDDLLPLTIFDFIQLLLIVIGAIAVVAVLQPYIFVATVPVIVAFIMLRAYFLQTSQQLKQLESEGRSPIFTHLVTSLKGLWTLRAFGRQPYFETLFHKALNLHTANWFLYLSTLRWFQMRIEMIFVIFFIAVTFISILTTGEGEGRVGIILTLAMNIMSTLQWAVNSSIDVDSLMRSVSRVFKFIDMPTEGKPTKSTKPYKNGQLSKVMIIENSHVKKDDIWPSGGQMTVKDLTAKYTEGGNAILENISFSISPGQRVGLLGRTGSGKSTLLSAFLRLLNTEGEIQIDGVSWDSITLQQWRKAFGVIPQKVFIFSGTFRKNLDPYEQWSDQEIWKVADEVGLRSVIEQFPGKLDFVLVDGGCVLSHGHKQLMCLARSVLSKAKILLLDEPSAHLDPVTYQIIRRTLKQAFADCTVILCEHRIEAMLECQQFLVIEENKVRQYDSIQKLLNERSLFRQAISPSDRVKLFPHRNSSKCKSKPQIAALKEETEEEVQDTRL

Turning to `CC(C)c1nn(C2CCCCC2)c2nc(C(=O)O)cc(-c3ccc(N4CCC(C#N)CC4)cc3)c12` [compound 185, 4-[4-(4-cyanopiperidin-1-yl)phenyl]-1-cyclohexyl-3-(propan-2-yl)-1H-pyrazolo[3,4-b]pyridine-6-carboxylic acid], the “% Activation” value was found to be 237.8% at ΔF508-CFTR [1] (setting [3]) and 478.6% at ΔF508-CFTR [2]. Moreover, the EC50 on ΔF508-CFTR [1] (setting [4]) was determined as 1110 nM; on ΔF508-CFTR [2] it was 520 nM.
Turning to `CN(C)CC(C)(C)COc1cc(C(=O)O)nc2c1c(C1CCC1)nn2-c1ccccc1` [compound 636, 3-cyclobutyl-4-[3-(dimethylamino)-2,2-dimethylpropoxy]-1-phenyl-1H-pyrazolo[3,4-b]pyridine-6-carboxylic acid], on ΔF508-CFTR [1] (setting [5]), the “% Activation” value turned out to be 184.1% and the half-maximal effective concentration (EC50) is 617 nM. Further, on ΔF508-CFTR [2], the “% Activation” value came to 391.3% and the EC50 was found to be 790 nM.
Consider `CC(C)c1nn(C2CCCCC2)c2nc(C(=O)O)cc(N3CCCCC3)c12` [compound 265, 1-cyclohexyl-4-(piperidin-1-yl)-3-(propan-2-yl)-1H-pyrazolo[3,4-b]pyridine-6-carboxylic acid], for which the “% Activation” value on ΔF508-CFTR [1] (setting [3]) stood at 132.05%; at ΔF508-CFTR [2], 397.8%. Also, the EC50 at ΔF508-CFTR [1] (setting [4]) worked out at 1240 nM; on ΔF508-CFTR [2], 1390 nM.
For the compound `COC1CCCN(c2cc(C(=O)O)nc3c2c(C2CCC2)nn3-c2ccccc2)C1` (centres unmarked) [compound 468, 3-cyclobutyl-4-(3-methoxypiperidin-1-yl)-1-phenyl-1H-pyrazolo[3,4-b]pyridine-6-carboxylic acid], on ΔF508-CFTR [1] (setting [5]), the “% Activation” value stood at 120.3% and the EC50 stood at 618 nM. On ΔF508-CFTR [2], the “% Activation” value turned out to be 297.2% and the EC50 was 371 nM.
Consider `O=C(O)c1cc(N2CCC3(C2)CC3(F)F)c2c(C3CCC3)nn(-c3ccccc3)c2n1` (centres unmarked) [compound 423, 3-cyclobutyl-4-(1,1-difluoro-5-azaspiro [2. 4]heptan-5-yl)-1-phenyl-1H-pyrazolo[3,4-b]pyridine-6-carboxylic acid], for which, on ΔF508-CFTR [1] (setting [5]), the “% Activation” value is 113.4% and the concentration giving a half-maximal response (EC50) came to 934 nM. On ΔF508-CFTR [2], the “% Activation” value was 299.25% and the EC50 is 920 nM.
Regarding `CN(C)c1ncc(-c2cc(C(=O)O)nc3c2c(C(C)(C)C)nn3C2CCCC2)cn1` [compound 91, 3-tert-butyl-1-cyclopentyl-4-[2-(dimethylamino)pyrimidin-5-yl]-1H-pyrazolo[3,4-b]pyridine-6-carboxylic acid], the “% Activation” value at ΔF508-CFTR [1] (setting [3]) was 43.54%; at ΔF508-CFTR [2], 176.6%. Further, the EC50 at ΔF508-CFTR [1] (setting [4]) and on ΔF508-CFTR [2] was 3340 nM in each case.
As to `COCC1CCN(c2cc(C(=O)O)nc3c2c(C(C)C)nn3C2CCCCC2)CC1` [compound 431, 1-cyclohexyl-4-[4-(methoxymethyl)piperidin-1-yl]-3-(propan-2-yl)-1H-pyrazolo[3,4-b]pyridine-6-carboxylic acid], the “% Activation” value is listed as 198.57% at ΔF508-CFTR [1] (setting [5]) and 416.6% on ΔF508-CFTR [2]. Moreover, the figures for the EC50 on ΔF508-CFTR [1] (setting [5]) and on ΔF508-CFTR [2] were 543 nM and 425 nM, respectively.
On to `COCC1(C)CN(c2cc(C(=O)O)nc3c2c(C)nn3-c2ccccc2)C1` [compound 289, 4-[3-(methoxymethyl)-3-methylazetidin-1-yl]-3-methyl-1-phenyl-1H-pyrazolo[3,4-b]pyridine-6-carboxylic acid], for which the “% Activation” value on ΔF508-CFTR [1] (setting [3]) is recorded as 46.35%; at ΔF508-CFTR [2], 172.8%. The values for the EC50 at ΔF508-CFTR [1] (setting [4]) and on ΔF508-CFTR [2] were 2510 nM and 1830 nM, respectively.
On to `CC(C)COC1CCN(c2cc(C(=O)O)nc3c2c(C(C)C)nn3-c2ccc(F)cc2)CC1` [compound 396, 1-(4-fluorophenyl)-4-[4-(2-methylpropoxy)piperidin-1-yl]-3-(propan-2-yl)-1H-pyrazolo[3,4-b]pyridine-6-carboxylic acid], for which, at ΔF508-CFTR [1] (setting [5]), the “% Activation” value was 209.3% and the concentration giving a half-maximal response (EC50) came to 403 nM. On ΔF508-CFTR [2], the “% Activation” value is on record as 409.8% and the EC50 was 301 nM.
Take `CC(C)c1nn(-c2ccc(F)cc2)c2nc(C(=O)O)cc(N3CCC(C)(N4CCCCC4)CC3)c12` [compound 784, 1-(4-fluorophenyl)-4-(4′-methyl [1,4′-bipiperidin]-1′-yl)-3-(propan-2-yl)-1H-pyrazolo[3,4-b]pyridine-6-carboxylic acid]: the entries for the “% Activation” value on ΔF508-CFTR [1] (setting [5]) and at ΔF508-CFTR [2] were 38.94% and 225.6%, respectively. The EC50 was 1220 nM at ΔF508-CFTR [1] (setting [5]) and 1670 nM at ΔF508-CFTR [2].
As for `N#CC1CCN(c2ccc(-c3cc(C(=O)O)nc4c3c(C3CCC3)nn4-c3cccc(N4CCCC4)c3)cn2)CC1` [compound 248], the “% Activation” value at ΔF508-CFTR [1] (setting [3]) is recorded as 405.93%; on ΔF508-CFTR [2], 606.83%. Besides, the EC50 is 550 nM at ΔF508-CFTR [1] (setting [4]) and 422 nM at ΔF508-CFTR [2].
For the compound `Cc1nn(-c2ccccc2)c2nc(C(=O)O)cc(C3=CCOCC3)c12` [compound 128, 4-(3,6-dihydro-2H-pyran-4-yl)-3-methyl-1-phenyl-1H-pyrazolo[3,4-b]pyridine-6-carboxylic acid], the “% Activation” value is listed as 33.92% at ΔF508-CFTR [1] (setting [3]) and 175.85% on ΔF508-CFTR [2]. For the same compound, the EC50 on ΔF508-CFTR [1] (setting [4]) and at ΔF508-CFTR [2] was 3340 nM throughout.
For `CN(C)CCOCCOc1cc(C(=O)O)nc2c1c(C1CCC1)nn2-c1ccccc1` [compound 614, 3-cyclobutyl-4-{2-[2-(dimethylamino)ethoxy]ethoxy}-1-phenyl-1H-pyrazolo[3,4-b]pyridine-6-carboxylic acid], at ΔF508-CFTR [1] (setting [5]), the “% Activation” value is on record as 32.02% and the EC50 worked out at 3330 nM. Also, on ΔF508-CFTR [2], the “% Activation” value is given as 176.9% and the concentration for a half-maximal effect (EC50) was 3330 nM.
For the compound `CC(C)c1nn(-c2cccc(F)c2)c2nc(C(=O)O)cc(-c3cnc(N(C)C4CCOCC4)nc3)c12` [compound 316, 1-(3-fluorophenyl)-4-{2-[methyl(oxan-4-yl)amino]pyrimidin-5-yl}-3-(propan-2-yl)-1H-pyrazolo[3,4-b]pyridine-6-carboxylic acid], the “% Activation” value stood at 218.87% on ΔF508-CFTR [1] (setting [3]) and 435.6% on ΔF508-CFTR [2]. The EC50 at ΔF508-CFTR [1] (setting [4]) turned out to be 565 nM; at ΔF508-CFTR [2] it was 308 nM.
Consider `CCN1CCN(c2cc(C(=O)O)nc3c2c(C(C)C)nn3-c2ccc(F)cc2)CC1` [compound 772, 4-(4-ethylpiperazin-1-yl)-1-(4-fluorophenyl)-3-(propan-2-yl)-1H-pyrazolo[3,4-b]pyridine-6-carboxylic acid], for which, at ΔF508-CFTR [1] (setting [5]), the “% Activation” value is 53.82% and the EC50 came out at 1670 nM. Besides, on ΔF508-CFTR [2], the “% Activation” value was 226.6% and the EC50 came out at 1360 nM.
With `O=C(O)c1cc(N2CCC(N3CCOCC3)CC2)c2c(C3CCC3)nn(-c3ccnc(OC4CCOCC4)c3)c2n1` [compound 918, 3-cyclobutyl-4-[4-(morpholin-4-yl)piperidin-1-yl]-1-{2-[(oxan-4-yl)oxy]pyridin-4-yl}-1H-pyrazolo[3,4-b]pyridine-6-carboxylic acid], the “% Activation” value is given as 149.75% on ΔF508-CFTR [1] (setting [6]) and 352.1% at ΔF508-CFTR [2]. The EC50 came out at 712 nM at ΔF508-CFTR [1] (setting [6]) and 479 nM at ΔF508-CFTR [2].
In the case of `O=C(O)c1cc(N2CCN(CC3CC3)CC2)c2c(C3CCC3)nn(-c3ccccc3)c2n1` [compound 449, 3-cyclobutyl-4-[4-(cyclopropylmethyl)piperazin-1-yl]-1-phenyl-1H-pyrazolo[3,4-b]pyridine-6-carboxylic acid], on ΔF508-CFTR [1] (setting [5]), the “% Activation” value was determined as 139.3% and the EC50 turned out to be 1350 nM. Further, on ΔF508-CFTR [2], the “% Activation” value came to 298.55% and the EC50 was determined as 918 nM.
For `O=C(O)c1cc(OCCCF)c2c(C3CCC3)nn(-c3ccccc3)c2n1` [compound 489, 3-cyclobutyl-4-(3-fluoropropoxy)-1-phenyl-1H-pyrazolo[3,4-b]pyridine-6-carboxylic acid], the “% Activation” value at ΔF508-CFTR [1] (setting [5]) is 106.4%; at ΔF508-CFTR [2], 274.95%. Further, the 50% effective concentration (EC50) on ΔF508-CFTR [1] (setting [5]) came out at 1860 nM; at ΔF508-CFTR [2] it was 770 nM.
As for `CN(C)c1ncc(-c2cc(C(=O)O)nc3c2c(C(C)(C)C)nn3C2CCCCC2)cn1` [compound 147, 3-tert-butyl-1-cyclohexyl-4-[2-(dimethylamino)pyrimidin-5-yl]-1H-pyrazolo[3,4-b]pyridine-6-carboxylic acid], the “% Activation” value was 114.65% on ΔF508-CFTR [1] (setting [3]) and 318.9% at ΔF508-CFTR [2]. The EC50 at ΔF508-CFTR [1] (setting [4]) amounted to 1050 nM; on ΔF508-CFTR [2], 831 nM.
For the compound `COC(C)(C)C1CCN(c2cc(C(=O)O)nc3c2c(C2CCC2)nn3-c2ccccc2)CC1` [compound 605, 3-cyclobutyl-4-[4-(2-methoxypropan-2-yl)piperidin-1-yl]-1-phenyl-1H-pyrazolo[3,4-b]pyridine-6-carboxylic acid], the “% Activation” value on ΔF508-CFTR [1] (setting [5]) is recorded as 292.8%; at ΔF508-CFTR [2], 531.3%. The EC50 on ΔF508-CFTR [1] (setting [5]) worked out at 82.1 nM; on ΔF508-CFTR [2] it was 43.6 nM.

What is called EC50 is the concentration needed to bring the measured effect to its halfway point.
